Experimental data from PubChem BioAssay AID588585 (The Scripps Research Institute Molecular Screening Center, 2011).
The source made the active and inactive calls.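 The calls were made as follows: active = inhibition of probe labelling of the enzyme band in the gel above 60%; inactive = inhibition at or below 60%.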

Tested on: Fam108b (ABHD17B) serine hydrolase [Mus musculus]
Assay: Fam108b hydrolase inhibitors in membrane proteome – cell lysate, gel-based competitive ABPP, full-length membrane form, powders, SAR follow-up (AID 588585)
Settings: competitive ABPP FP-Rh gel, at 5 µM, active compounds read high

SMILES | inhibition
COc1ccc(-c2csc3cc(-c4ccccc4Cl)oc(=O)c23)cc1 | 0% (inactive)
O=c1oc(-c2ccco2)cc2scc(-c3ccc(Br)cc3)c12 | 0% (inactive)
Cc1ccc(C2NC(=O)c3c(sc4c3CCCC4)N2)cc1 (centres undefined) | 0% (inactive)
CC(C)(C)c1nc2scc(-c3ccccc3)c2c(=S)s1 | 0% (inactive)
COc1ccc(C2NC(=O)c3c(sc(C)c3C)N2)cc1 (centres undefined) | 0% (inactive)
Cc1ccc(-c2csc3cc(-c4ccc(Br)cc4)oc(=O)c23)cc1 | 0% (inactive)

Continued, values first:

inhibition | SMILES
0% (inactive) | O=c1[nH]c(-c2cccs2)nc2scc(-c3ccccc3)c12
0% (inactive) | O=c1[nH]c(-c2ccccc2)nc2scc(-c3cccs3)c12
0% (inactive) | O=c1c2c(-c3ccccc3)csc2ncn1Cc1ccccc1
0% (inactive) | O=c1[nH]c(=O)c2c(-c3ccccc3)csc2[nH]1
0% (inactive) | O=c1[nH]c(=S)[nH]c2scc(-c3ccccc3)c12
0% (inactive) | O=c1[nH]c(-c2ccccc2)nc2scc(-c3ccccc3)c12
0% (inactive) | Fc1ccccc1-c1nc2scc(-c3cccs3)c2c(=S)s1
0% (inactive) | O=c1[nH]c(=S)[nH]c2scc(-c3cccs3)c12
